According to US20110020436A1 (priority 2006, published 2011):

Experiments:
[1] = Sleepiness side effect in the case subjects; type: in vivo, human; details: topical application
Text: This is probably due to either the local metabolism of melatonin or to the metabolism of melatonin in the liver, which is its primary site of metabolism (Slominski).

COX-2 = details: macrophage cells after exposure to LPS; cited from earlier work
iNOS = details: macrophage cells after exposure to LPS; cited from earlier work
COX-1 = details: macrophage cells; cited from earlier work
paw swelling and edema = details: systemic melatonin after injection of a noxious stimulant; cited from earlier work
stressed skin flaps = details: animals with pineal glands removed, versus no melatonin; cited from earlier work

SMILES: COc1ccc2[nH]cc(CCNC(C)=O)c2c1 [melatonin, N-acetyl-5-methoxytryptamine]
- sleepiness [1]: no sleepiness
- activation of COX-2 (COX-2): inhibits the activation
- activation of iNOS (iNOS): inhibits the activation
- COX-1 function (COX-1): does not inhibit
- swelling and edema of the paw (paw swelling and edema): reduction of swelling and edema
- levels of MDA and nitric oxide (stressed skin flaps): decreased levels
- levels of glutathione (stressed skin flaps): increased levels
